Reference: BindingDB's records for doi:10.1016/j.bmcl.2012.06.023 (University of Siena, 2012)

Biological target: Subtilisin-like protease 1 (Plasmodium falciparum, UniProt O61142)
Test: Inhibition of Plasmodium falciparum SUB1 by fluorimetric assay

Chain of Subtilisin-like protease 1 (O61142 220-690 limits assumed): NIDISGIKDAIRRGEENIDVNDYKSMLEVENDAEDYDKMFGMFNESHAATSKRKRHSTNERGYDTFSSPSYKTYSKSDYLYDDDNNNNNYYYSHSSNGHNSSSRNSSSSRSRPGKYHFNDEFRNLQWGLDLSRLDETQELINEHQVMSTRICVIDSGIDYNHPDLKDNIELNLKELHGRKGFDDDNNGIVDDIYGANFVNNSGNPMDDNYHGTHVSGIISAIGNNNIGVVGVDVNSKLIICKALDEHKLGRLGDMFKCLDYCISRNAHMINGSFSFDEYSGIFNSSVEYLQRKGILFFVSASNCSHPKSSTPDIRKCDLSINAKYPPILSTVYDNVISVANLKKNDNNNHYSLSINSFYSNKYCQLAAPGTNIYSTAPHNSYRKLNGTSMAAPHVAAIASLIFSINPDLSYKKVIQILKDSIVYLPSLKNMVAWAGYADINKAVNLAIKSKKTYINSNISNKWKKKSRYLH

| Structure (SMILES) | IC50 |
| --- | --- |
| O=[N+]([O-])c1ccc(CN=Nc2c3c(nc4ccccc24)CCCC3)cc1 | > 50 µM |
| O=[N+]([O-])c1ccc(CN=Nc2nc3ccccc3[nH]2)cc1 | > 50 µM |
| Cc1cc(N=NCc2ccc(C#N)cc2)c2cc3c(cc2n1)OCO3 | 40 µM |

Further lines, results first:

| IC50 | Structure (SMILES) |
| --- | --- |
| 40 µM | Cc1cc(N=NCc2ccccc2[N+](=O)[O-])c2cc3c(cc2n1)OCO3 |
| 20 µM | Cc1cc(N=NCc2ccc([N+](=O)[O-])cc2)c2cc3c(cc2n1)OCO3 |
| 20 µM | COc1ccc2nc(C)cc(N=NCc3ccc([N+](=O)[O-])cc3)c2c1 [TCMDC-123970] |
